Results taken from publication PMC11206507, “Unraveling the Impact of Six Pentacyclic Triterpenes Regulating Metabolic Pathways on Lung Carcinoma Cells” (Pharmaceuticals, 2024).
Read-outs that look alike come from different tables or passages of the source.

Tests used:
Type in all cases: cell-based, human
[1] = test system: A549 cells; assay: Mitochondrial ROS production assay (DHE, flow cytometry); conditions: A549, IC25, 24 h; for Amount of mROS, on average of the three named triterpenes, compared to the untreated cells: group average
Protocol: (§1) We used flow cytometry to analyze several cellular mechanistic pathways in A549 cells after incubation with the triterpenes. In general, the cells were seeded in a 6-well plate at a density of 1 × 10^6 cells/mL and incubated for 24 h in supplemented DMEM. After 24 h, the A549 cells were treated with the triterpenes, following each manufacturer’s protocol. All of the following experiments were performed in a Muse® Cell Analyzer (EMD Millipore Corporation, Temecula, CA). The instrument was calibrated before each assay using the Muse® System Check Kit (Luminex MCH100101, Luminex Corporation). Each assay was run at least in two independent experiments. For each experiment, all samples were analyzed in triplicate in the instrument and the capillary line was washed after each sample run to avoid artifacts. In addition, to address the issue of cell doublets, we used the Muse® Cell Dispersal Reagent (Luminex Corporation) in all experiments. The concentration of the triterpenes in each assay was selected depending on the cellular concentration necessary to generate the gain signal in the instrument. This means that we attempted to select concentrations avoiding excessive cytotoxicity to accurately determine the respective signal from each assay.
The production of reactive oxygen species (ROS) by mitochondria was determined using the Oxidative Stress Kit (Luminex MCH100111, Luminex Corporation). After the A549 cells were treated with the triterpenes (IC25) for 24 h, the cells were scraped and centrifuged. For ROS, the cell pellet was incubated with dihydroethidium (DHE) dye for 1 h at 37 °C.

[2] = test system: A549 cells; assay: Total ROS production assay (DCF); conditions: A549, IC25 (CisPt 25 μM), 24 h
Protocol: The production of total ROS was determined using the 2′,7′-dichlorodihydrofluorescein diacetate (DCF) fluorescent dye. A549 cells were seeded in a concentration of 1 × 10^5 cells/mL into black 96-well plates with a clear bottom. After 24 h, the cells were incubated with the triterpenes (IC25) and controls for 24 h. Then, 50 μL of DCF (10 μM) was added to each well and they were incubated for 1 h at room temperature. Then, the fluorescence of each well was measured (Ex/Em = 485/530 nm) in the Tecan® M200 plate reader.
This experiment was performed in triplicate. All data were expressed by plotting the values as an average of three measurements for each treatment condition as the mean ± SD and analyzed with the software GraphPad Prism 9. Statistical analysis was performed using one-way analysis of variance (ANOVA) to compare the mean value of each treated type of cells versus the control (untreated cells). The statistical significance defined by the software for p values was **** < 0.0001, *** from 0.001 to 0.0001, ** from 0.001 to 0.01, * from 0.01 to 0.05, and non-significant (ns) ≥ 0.05.

[3] = test system: NSCLC A549 cells; assay: MTS/PMS cell viability, A549; conditions: for TI > 1: summary, MRC5 vs A549; as to TI > 1: key: '✔' means induction; '-' means non-induction of any of the tested processes
Protocol: A similar procedure was performed to determine the IC50 of the triterpenes in a normal lung fibroblast cell line (MRC5). In brief, the A549 and MRC5 cells were seeded into 96-well plates at a density of 1 × 10^5 cells/mL in supplemented DMEM medium. […] Then, 10 uL of the MTS reagent from the CellTiter 96® Aqueous Non-Radioactive Cell Proliferation Assay (Promega G5421) was added to each well. Then, we incubated the plates at 37 °C and in a 5% CO2 atmosphere for 1 h. After incubation, the absorbance was measured at 492 nm (n = 8) in a microplate reader spectrophotometer (Thermoscientific Multiskan FC). The cell viability was calculated as follows:% Viability = (sample absorbance − sample media absorbance)/(untreated cells’ absorbance − untreated cells’ media absorbance) × 100
The cell viability data were presented by plotting the values with an average of eight measurements for each treatment (mean ± SD) in at least three independent experiments. The IC50 values were calculated with the GraphPad Prism 9 software (Prism 9; GraphPad by Dotmatics, San Diego, CA, USA) using the dose–response curve.

[4] = test system: PDL1 gene; assay: RT-qPCR gene expression of PDL1; conditions: for PDL1 gene expression (in words): A549, IC25 (CisPt 25 μM), 24 h
Protocol: A549 cells were seeded into 6-well plates at a density of 1 × 10^6 cells/mL in supplemented DMEM. The cells were incubated with the triterpenes (IC25) for 24 h. Total RNA was extracted from the cells using the TRIzol reagent (Invitrogen Corporation, Carlsbad, CA, USA) according to the manufacturer’s instructions. The purity and concentration of RNA were assessed using a NanoDrop spectrophotometer (Thermo Fisher Scientific). cDNA was synthesized using the High-Capacity cDNA Reverse Transcription Kit (Applied Biosystems) according to the manufacturer’s instructions.
RT-qPCR was performed on a StepOnePlus® Real-Time PCR System (Thermo Fisher Scientific) using TaqMan Gene Expression Assays (Applied Biosystems) for PDL1 (CD274; Assay ID: Hs01125297_m1), ribonucleotide reductase (RR) M1 (Assay ID: Hs01040697_m1), and STAT3 (Assay ID: Hs01047586_g1). Each reaction consisted of 10 ng of cDNA, TaqMan Gene Expression Master Mix (Applied Biosystems), and TaqMan probes. The PCR cycling conditions were as follows: 95 °C for 10 min, followed by 40 cycles of 95 °C for 15 s and 60 °C for 60 s. The relative gene expression levels were calculated using the ΔΔCt method. GAPDH (Assay ID: Hs02758991_g1) was used as the endogenous control for normalization.
All RT-qPCR experiments were performed at least in triplicate. All data were expressed by plotting values with an average of four measurements for each treatment condition as the mean ± SD and analyzed with the software GraphPad Prism 9. Statistical analysis was performed using one-way analysis of variance (ANOVA) to compare the mean value of each treated type of cells versus the control (untreated cells). The statistical significance defined by the software for p values was **** < 0.0001, *** from 0.001 to 0.0001, ** from 0.001 to 0.01, * from 0.01 to 0.05, and non-significant (ns) ≥ 0.05.

[5] = test system: LC3-II; assay: Autophagy induction assay (LC3 antibody, flow cytometry); conditions: for Autophagic response (in words): A549, IC25, 24 h, vs controls (untreated ratio 0.8, starving ratio 1); for Autophagy inhibition: summary, NSCLC A549 cells
Protocol: as §1
The Muse® Autophagy LC3 Antibody-Based Kit (Luminex MCH200109, Luminex Corporation) was used to determine autophagy activation by monitoring lipidated LC3-II. After the A549 cells were treated with the triterpenes (IC25) for 24 h, autophagy reagent A was added for 4 h to prevent the lysosomal degradation of LC3-II. Then, the cells were detached and centrifuged. The pellet was suspended and incubated for 30 min in the autophagy reagent B containing anti-LC3-II mouse monoclonal antibody. Finally, the cell pellet was washed and suspended in fresh assay buffer for measurement. The autophagy response was calculated using the following formula:
Autophagy ratio = mean autophagy value of treated or untreated cells/mean autophagy value of starving cells.
The starving cells were labeled ‘No supp’ as non-supplemented cells. These served as the positive signal for autophagy and were designated a ratio of 1 since they were compared to themselves. A ratio ≥1 indicates the activation of the autophagic response.

SMILES	mROS production (in words) ([1]; vs negative control)	Amount of mROS, on average of the three named triterpenes, compared to the untreated cells [1] [%]	Total ROS production (in words) [2]	TI [3]	TI ([3]; TI = MRC5 IC50/A549 IC50, >1 means higher selectivity)	PDL1 gene expression (in words) [4]	Autophagic response (in words) [5]	Autophagy inhibition [5]	IC50 ([3]; Homo sapiens, A549, 24 h, MTS/PMS) [µM]	TI > 1 [3]	PDL1 downregulation ([4]; summary, NSCLC A549 cells)
C=C(C)[C@@H]1CC[C@]2(C(=O)O)CC[C@]3(C)[C@H](CC[C@@H]4[C@@]5(C)CC[C@H](O)C(C)(C)[C@@H]5CC[C@]43C)[C@@H]12 [BeA, betulinic acid]	largest level of mROS	26.2	highest increase in total ROS	1.27	> 1	superior in suppressing both genes					
C=C(C)[C@@H]1CC[C@]2(CO)CC[C@]3(C)[C@H](CC[C@@H]4[C@@]5(C)CC[C@H](O)C(C)(C)[C@@H]5CC[C@]43C)[C@@H]12 [Betu, betulin]				0.73		did not inhibit	induced an autophagic response similar to that of CisPt	-	22 ± 1	-	-
C=C(C)[C@@H]1CC[C@]2(C)CC[C@]3(C)[C@H](CC[C@@H]4[C@@]5(C)CC[C@H](O)C(C)(C)[C@@H]5CC[C@]43C)[C@@H]12 [Lupe, lupeol]		26.2		1.26			inhibit the LC3-II activity				
C[C@H]1[C@H](C)CC[C@]2(C(=O)O)CC[C@]3(C)C(=CC[C@@H]4[C@@]5(C)CC[C@H](O)C(C)(C)[C@@H]5CC[C@]43C)[C@H]12 [UrA, ursolic acid]				0.57			induced an autophagic response similar to that of CisPt	-		-	
